Consider 18 molecules from patent US20050032873A1, “3-Amino chroman and 2-amino tetralin derivatives” (Wyeth, priority 2003, published 2005).

Broadly, the Ki is the dissociation constant of the complex between target and ligand, obtained from inhibition or displacement. As a reminder, the EC50 is the concentration at which the effect is half-maximal. Read a high EC50 as a less potent agent. Broadly, the IC50 is the concentration that inhibits the measured activity by half.

Read-outs that look alike come from different tables or passages of the source.

Test [1] deals with T1, 5-HT1A receptor (Homo sapiens, UniProt P08908).
T1 sequence (P08908 1-422): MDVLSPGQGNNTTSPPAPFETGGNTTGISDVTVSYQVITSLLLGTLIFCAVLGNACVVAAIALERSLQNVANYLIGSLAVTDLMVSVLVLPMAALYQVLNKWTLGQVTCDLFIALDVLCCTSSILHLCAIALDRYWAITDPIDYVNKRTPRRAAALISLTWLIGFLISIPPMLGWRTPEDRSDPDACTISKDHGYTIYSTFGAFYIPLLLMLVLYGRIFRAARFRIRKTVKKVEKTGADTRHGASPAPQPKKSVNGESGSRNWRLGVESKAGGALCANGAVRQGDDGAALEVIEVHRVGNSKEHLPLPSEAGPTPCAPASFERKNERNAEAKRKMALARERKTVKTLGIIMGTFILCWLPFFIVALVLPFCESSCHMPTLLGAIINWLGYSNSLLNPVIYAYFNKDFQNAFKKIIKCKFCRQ
Description: 5-HT1A receptor affinity: displacement of [3H] 8-OH-DPAT. The class given is binding. Further details: expressed in transfected cells. Conditions: displacement of [3H] 8-OH-DPAT; CHO cells stably transfected with human 5-HT1A receptors; read-out: 5-HT1A Receptor Affinity Ki. In general terms: In a radioligand displacement assay an active substance lowers the binding of a labelled ligand.

The target of a further test is T2, serotonin transporter (Rattus norvegicus, UniProt P31652).
T2 construct: displace ^3H-paroxetine from male rat cortical membranes; from tissue; host or cells: male rat cortical membranes
T2 sequence (P31652 whole entry): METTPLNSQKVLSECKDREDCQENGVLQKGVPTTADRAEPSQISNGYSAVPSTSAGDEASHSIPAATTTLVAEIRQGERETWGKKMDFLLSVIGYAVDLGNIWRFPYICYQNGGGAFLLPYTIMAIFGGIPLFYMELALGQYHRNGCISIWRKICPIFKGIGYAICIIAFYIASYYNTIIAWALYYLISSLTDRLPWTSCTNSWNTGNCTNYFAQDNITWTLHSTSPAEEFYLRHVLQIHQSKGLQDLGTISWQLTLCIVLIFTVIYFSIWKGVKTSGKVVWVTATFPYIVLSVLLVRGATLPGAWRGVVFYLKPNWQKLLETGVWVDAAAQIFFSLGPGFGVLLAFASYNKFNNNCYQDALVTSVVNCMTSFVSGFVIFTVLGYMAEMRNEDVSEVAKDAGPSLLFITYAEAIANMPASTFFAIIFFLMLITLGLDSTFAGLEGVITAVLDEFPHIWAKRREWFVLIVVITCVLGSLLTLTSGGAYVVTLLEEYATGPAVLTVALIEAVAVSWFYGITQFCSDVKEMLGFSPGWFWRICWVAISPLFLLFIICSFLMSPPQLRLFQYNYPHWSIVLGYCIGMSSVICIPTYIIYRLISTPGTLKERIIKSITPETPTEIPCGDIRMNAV
The test can be described thus: 5-HT transporter affinity: displacement of 3H-paroxetine from male rat cortical membranes. The format is binding. The conditions noted are these: displacement of 3H-paroxetine; male rat cortical membranes; read-out: 5-HT Transporter Affinity Ki.

The target of test [2] is T1, 5-HT1A receptor. Description: cAMP accumulation assay, 5-HT1A function. The class given is cell-based. Conditions: for EC50: cells marked EC50 (agonist); for Emax / 5-HT1A Function cAMP (Emax): in brackets after EC50 or IC50; for Emax: read-out: 5-HT1A Function cAMP (Emax); for IC50: cells marked IC50 (antagonist), read-out: 5-HT1A Function cAMP IC50.
The target in test [3] is T3, cloned human 5-HT1A receptors (Homo sapiens, UniProt P08908).
T3 construct: expressed in transfected cells
T3 sequence (P08908 1-422): T1 sequence (P08908 1-422)
The test can be described thus: 35S-GTPγS binding assay, 5-HT1A function. The class given is biochemical. The conditions noted are these: for EC50: agonist potency; for IC50: antagonist potency, reversal of 8-OH-DPAT, read-out: 5-HT1A Function GTPγS IC50. (In general: GTPγS resists hydrolysis and so accumulates on activated G proteins.)

[4] abbreviates: maximum stimulatory effect, in brackets after EC50, read-out: 5-HT1A Function GTPγS (Emax).
The mark [5] stands for this setting: maximum inhibitory effect, in brackets after IC50, read-out: 5-HT1A Function GTPγS (Imax).
[6] abbreviates: maximum inhibitory effect, in brackets after IC50.

As to `CCCN(CCCc1c[nH]c2ccc(F)cc12)[C@H]1CCc2cccc(OC)c2C1` [Compound 47a, (−)-N-[3-(5-fluoro-1H-indol-3-yl)propyl]-8-methoxy-N-propyl-1,2,3,4-tetrahydronaphthalen-2-amine], the inhibition constant (Ki) at 5-HT1A receptor [1] stood at 1.55 nM; at serotonin transporter it was 0.83 nM. In addition, the figures for the EC50 (on 5-HT1A receptor [2]; in test [3]) were 7.61 nM and 5.6 nM, respectively. The values for the Emax (on 5-HT1A receptor [2]; in test [3] (setting [4])) were 99% and 80.5%, respectively.

Take `CC(Cc1c[nH]c2ccc(F)cc12)CN(CC1CC1)[C@H]1COc2c(F)ccc(C(N)=O)c2C1` (single isomer, unassigned) [Compound 155a]: the values for the Ki on 5-HT1A receptor [1] and at serotonin transporter were 4.16 nM and 48.8 nM, respectively. For the same molecule, the IC50 on 5-HT1A receptor [2] came out at 106 nM; in test [3], 151 nM. The Emax on 5-HT1A receptor [2] is 0%; in test [3] (setting [5]), 100%.

For the molecule `CCN(CCCCc1coc2c(OC)cccc12)C1COc2c(F)ccc(C(N)=O)c2C1` (centres unmarked) [Compound 168, 3-{ethyl[4-(7-methoxy-1-benzofuran-3-yl)butyl]amino}-8-fluorochromane-5-carboxamide], the Ki came out at 3.49 nM at 5-HT1A receptor [1] and 187 nM at serotonin transporter. Further, at 5-HT1A receptor [2], the IC50 amounted to 50.8 nM. For the same molecule, the Emax on 5-HT1A receptor [2] stood at 0%; in test [3] (setting [4]), 76%. This molecule gave an EC50 in test [3] of 243 nM.

For the molecule `CCCN(CC1CCc2[nH]c3ccc(F)cc3c2C1)[C@H]1COc2c(F)ccc(C(N)=O)c2C1` (single isomer, unassigned; (+)) [Compound 177b], the Ki came out at 7.34 nM at 5-HT1A receptor [1] and 181 nM on serotonin transporter. The figures for the IC50 (at 5-HT1A receptor [2]; in test [3]) were 36.2 nM and 181 nM, respectively. Also, the 5-HT1A Function cAMP (Emax) on 5-HT1A receptor [2] stood at 0%. The 5-HT1A Function GTPγS (Imax) in test [3] (setting [6]) turned out to be 74%.

Take `CC(CCc1c[nH]c2ccc(F)cc12)N(CC1CC1)C1COc2c(F)ccc(C(N)=O)c2C1` (single isomer, unassigned; (+)) [Compound 15b, (+)-3-{(cyclopropylmethyl)[3-(5-fluoro-1H-indol-3-yl)-1-methylpropyl]amino}-8-fluorochromane-5-carboxamide]: the Ki at 5-HT1A receptor [1] turned out to be 31.7 nM; at serotonin transporter, 46.7 nM. Further, the EC50 at 5-HT1A receptor [2] is 32.4 nM; in test [3] it was 108 nM. At 5-HT1A receptor [2], this molecule gave a 5-HT1A Function cAMP (Emax) of 73%. In addition, the Emax in test [3] (setting [4]) was found to be 32%.

Turning to `NC(=O)c1ccc(F)c2c1CC(NCCCc1c[nH]c3ccc(F)cc13)CO2` (single isomer, unassigned; (+)) [Compound 1a, (+)-8-fluoro-3-{[3-(5-fluoro-1H-indol-3-yl)propyl]amino}chromane-5-carboxamide], the Ki at 5-HT1A receptor [1] was 46.3 nM; at serotonin transporter it was 26.2 nM. In addition, the EC50 turned out to be 95.8 nM on 5-HT1A receptor [2] and 993 nM in test [3]. The figures for the Emax (at 5-HT1A receptor [2]; in test [3] (setting [4])) were 84.5% and 87%, respectively.

As for `COc1ccc2[nH]cc(CCCN(CC3CC3)C3COc4c(F)ccc(C(N)=O)c4C3)c2c1` (centres unmarked) [Compound 108, 3-{(cyclopropylmethyl)[3-(5-methoxy-1H-indol-3-yl)propyl]amino}-8-fluorochromane-5-carboxamide], the Ki came out at 1.17 nM on 5-HT1A receptor [1] and 882 nM on serotonin transporter. Moreover, the IC50 at 5-HT1A receptor [2] turned out to be 45.4 nM; in test [3], 94.2 nM. Further, the results for the Emax (on 5-HT1A receptor [2]; in test [3] (setting [5])) were 0% and 100%, respectively.

Take `CCCN(C(C)CCc1c[nH]c2ccc(C#N)cc12)C1COc2c(F)ccc(C(N)=O)c2C1` (single isomer, unassigned) [Compound 13c, 3-[[3-(5-cyano-1H-indol-3-yl)-1-methylpropyl](propyl)amino]-8-fluoro-3,4-dihydro-2H-chromene-5-carboxamide]: the values for the Ki on 5-HT1A receptor [1] and at serotonin transporter were 119 nM and 118 nM, respectively. The IC50 on 5-HT1A receptor [2] worked out at 316 nM; in test [3], 2520 nM. The molecule also had a 5-HT1A Function cAMP (Emax) at 5-HT1A receptor [2] of 0%. In test [3] (setting [6]), the 5-HT1A Function GTPγS (Imax) stood at 92%.

For `CCN(CC1CCc2[nH]c3ccc(F)cc3c2C1)[C@H]1COc2c(F)ccc(C(N)=O)c2C1` (single isomer, unassigned; (-)) [Compound 176a], the results for the Ki on 5-HT1A receptor [1] and on serotonin transporter were 392 nM and 619 nM, respectively. Also, the figures for the IC50 (at 5-HT1A receptor [2]; in test [3]) were 878 nM and 4260 nM, respectively. For the same molecule, the Emax at 5-HT1A receptor [2] worked out at 0%; in test [3] (setting [5]) it was 92%.

For `CCCN(C(C)CCc1c[nH]c2ccc(F)cc12)C1COc2c(F)ccc(C(N)=O)c2C1` (single isomer, unassigned) [Compound 12a, 8-fluoro-3-[[3-(5-fluoro-1H-indol-3-yl)-1-methylpropyl](propyl)amino]-3,4-dihydro-2H-chromene-5-carboxamide], the Ki at 5-HT1A receptor [1] is 5.19 nM; at serotonin transporter, 22 nM. The IC50 on 5-HT1A receptor [2] amounted to 47.5 nM; in test [3], 323 nM. The 5-HT1A Function cAMP (Emax) on 5-HT1A receptor [2] came to 0%. Also, the 5-HT1A Function GTPγS (Imax) in test [3] (setting [6]) turned out to be 96%.

Regarding `COc1cccc2c(CCCN(CC3CC3)C3COc4c(F)ccc(C(N)=O)c4C3)c[nH]c12` (centres unmarked) [Compound 103, 3-{(cyclopropylmethyl)[3-(7-methoxy-1H-indol-3-yl)propyl]amino}-8-fluorochromane-5-carboxamide], the Ki was found to be 3.54 nM on 5-HT1A receptor [1] and 976 nM on serotonin transporter. Also, the IC50 at 5-HT1A receptor [2] stood at 172 nM; in test [3], 1000 nM. Moreover, the Emax on 5-HT1A receptor [2] came out at 0%; in test [3] (setting [5]), 95%.

Consider `CCCN(CCCCc1coc2c(OC)cccc12)C1COc2c(F)ccc(C(N)=O)c2C1` (centres unmarked) [Compound 169, 8-fluoro-3-[[4-(7-methoxy-1-benzofuran-3-yl)butyl](propyl)amino]chromane-5-carboxamide], for which the Ki was 1.48 nM on 5-HT1A receptor [1] and 528 nM on serotonin transporter. In addition, the values for the concentration for half-maximal inhibition (IC50) (on 5-HT1A receptor [2]; in test [3]) were 11.3 nM and 265 nM, respectively. Also, the Emax on 5-HT1A receptor [2] was determined as 0%; in test [3] (setting [5]), 100%.

For `C[C@@H](CCN(C1CCC1)[C@H]1COc2c(F)ccc(C(N)=O)c2C1)c1c[nH]c2ccc(F)cc12` [Compound 153a, (3R)-3-{cyclobutyl[(3S)-3-(5-fluoro-1H-indol-3-yl)butyl]amino}-8-fluorochromane-5-carboxamide], the values for the inhibitory constant (Ki) on 5-HT1A receptor [1] and at serotonin transporter were 20.2 nM and 61.5 nM, respectively. Moreover, the IC50 on 5-HT1A receptor [2] turned out to be 727 nM; in test [3], 3610 nM. Moreover, the Emax on 5-HT1A receptor [2] is 0%; in test [3] (setting [5]) it was 100%.

In the case of `COC(=O)c1ccc(F)c2c1C[C@H](NCCCCc1c[nH]c3ccc(F)cc13)CO2` [Compound 57a, Methyl (3S)-8-fluoro-3-{[4-(5-fluoro-1H-indol-3-yl)butyl]amino}chromane-5-carboxylate], the Ki came to 113 nM at 5-HT1A receptor [1] and 4.21 nM at serotonin transporter. Further, the 50% effective concentration (EC50) at 5-HT1A receptor [2] worked out at 337 nM; in test [3] it was 1750 nM. Moreover, the Emax on 5-HT1A receptor [2] turned out to be 81%; in test [3] (setting [4]) it was 96%.

As for `CNC(=O)c1ccc(F)c2c1CC(N(CCCCc1c[nH]c3ccc(F)cc13)C1CCC1)CO2` (centres unmarked) [Compound 95, 3-{cyclobutyl[4-(5-fluoro-1H-indol-3-yl)butyl]amino}-8-fluoro-N-methylchromane-5-carboxamide], the Ki on 5-HT1A receptor [1] stood at 10 nM; at serotonin transporter, 6.4 nM. For the same molecule, the IC50 at 5-HT1A receptor [2] worked out at 121 nM; in test [3], 422 nM. The values for the Emax (on 5-HT1A receptor [2]; in test [3] (setting [5])) were 0% and 100%, respectively.

In the case of `CCN(CCCc1coc2c(OC)cccc12)C1COc2c(F)ccc(C(N)=O)c2C1` (centres unmarked) [Compound 162, 3-{ethyl[3-(7-methoxy-1-benzofuran-3-yl)propyl]amino}-8-fluorochromane-5-carboxamide], the Ki at 5-HT1A receptor [1] worked out at 2.09 nM; on serotonin transporter, 61.5 nM. For the same molecule, the Emax is 0% at 5-HT1A receptor [2] and 87% in test [3] (setting [4]). The EC50 in test [3] was determined as 45.8 nM.

In the case of `CNC(=O)c1ccc(F)c2c1C[C@@H](N(CCCCc1c[nH]c3ccc(F)cc13)C1CCC1)CO2` [Compound 145b, (3R)-3-{cyclobutyl[4-(5-fluoro-1H-indol-3-yl)butyl]amino}-8-fluoro-N-methylchromane-5-carboxamide], the Ki on 5-HT1A receptor [1] stood at 6.29 nM; on serotonin transporter, 8.63 nM. In addition, the values for the IC50 (at 5-HT1A receptor [2]; in test [3]) were 848 nM and 1270 nM, respectively. In addition, the Emax on 5-HT1A receptor [2] was 0%; in test [3] (setting [5]) it was 100%.

For the molecule `N#Cc1ccc2[nH]cc(CCCN(CC3CC3)[C@@H]3COc4c(F)ccc(C(N)=O)c4C3)c2c1` [Compound 98a, (3S)-3-[[3-(5-cyano-1H-indol-3-yl)propyl](cyclopropylmethyl)amino]-8-fluorochromane-5-carboxamide], the inhibition constant Ki on 5-HT1A receptor [1] was determined as 4.72 nM; at serotonin transporter, 3.2 nM. The values for the IC50 (at 5-HT1A receptor [2]; in test [3]) were 113 nM and 586 nM, respectively. The Emax was found to be 0% on 5-HT1A receptor [2] and 51% in test [3] (setting [5]).
